The source made the active and inactive calls. The calls are words filed in the database; no cut-off is given here.
How the values were obtained:
HL-60 [1] = experiment: Induction of human HL60 cell differentiation into myeloid cells at 10 nM after 4 days by NBT reduction assay relative to control; assay type: functional
[2] = target: T1, Retinoic acid receptor gamma (Homo sapiens) (UniProt P13631); experiment: Transactivation of Gal4-fused RARgamma (unknown origin) expressed in African green monkey COS1 cells at 100 nM by luciferase reporter gene assay relative to DMSO-treated control; assay type: cell-based; conditions: COS-1
T1 sequence (whole entry): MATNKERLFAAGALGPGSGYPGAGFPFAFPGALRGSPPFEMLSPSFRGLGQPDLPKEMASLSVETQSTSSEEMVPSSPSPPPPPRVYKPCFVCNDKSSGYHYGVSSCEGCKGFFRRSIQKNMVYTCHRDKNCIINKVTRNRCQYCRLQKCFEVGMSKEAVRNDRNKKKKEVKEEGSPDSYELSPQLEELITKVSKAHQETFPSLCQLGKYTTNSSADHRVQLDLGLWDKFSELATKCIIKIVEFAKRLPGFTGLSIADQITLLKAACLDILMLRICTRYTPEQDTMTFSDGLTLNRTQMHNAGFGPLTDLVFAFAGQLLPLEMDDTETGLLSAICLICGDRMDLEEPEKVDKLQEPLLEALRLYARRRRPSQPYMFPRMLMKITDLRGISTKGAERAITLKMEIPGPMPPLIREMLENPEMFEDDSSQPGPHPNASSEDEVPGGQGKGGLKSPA

HL-60 [3] = experiment: Induction of human HL60 cell differentiation into myeloid cells at 100 nM after 4 days by NBT reduction assay relative to control; assay type: functional
[4] = target: T2, Retinoic acid receptor RXR-gamma (Homo sapiens) (UniProt P48443); experiment: Transactivation of full-length RXRgamma (unknown origin) expressed in African green monkey COS1 cells at 1000 nM by luciferase reporter gene assay; assay type: cell-based; conditions: COS-1
T2 sequence (whole entry): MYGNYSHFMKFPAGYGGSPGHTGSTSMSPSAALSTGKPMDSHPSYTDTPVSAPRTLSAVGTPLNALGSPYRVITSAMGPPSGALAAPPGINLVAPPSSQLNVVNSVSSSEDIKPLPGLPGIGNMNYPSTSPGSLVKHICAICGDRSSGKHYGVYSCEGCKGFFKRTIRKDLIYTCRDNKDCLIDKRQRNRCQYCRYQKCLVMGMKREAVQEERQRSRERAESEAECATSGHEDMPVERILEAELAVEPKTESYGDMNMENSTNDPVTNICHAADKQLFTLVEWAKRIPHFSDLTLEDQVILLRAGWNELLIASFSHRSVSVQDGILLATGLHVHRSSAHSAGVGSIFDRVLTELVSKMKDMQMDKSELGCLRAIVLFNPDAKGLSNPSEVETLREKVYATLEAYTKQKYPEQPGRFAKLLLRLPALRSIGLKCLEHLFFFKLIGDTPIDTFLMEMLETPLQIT

[5] = target: T3, Retinoic acid receptor RXR-beta (Homo sapiens) (UniProt P28702); experiment: Transactivation of full-length RXRbeta (unknown origin) expressed in African green monkey COS1 cells at 1000 nM by luciferase reporter gene assay; assay type: cell-based; conditions: COS-1
T3 sequence (whole entry): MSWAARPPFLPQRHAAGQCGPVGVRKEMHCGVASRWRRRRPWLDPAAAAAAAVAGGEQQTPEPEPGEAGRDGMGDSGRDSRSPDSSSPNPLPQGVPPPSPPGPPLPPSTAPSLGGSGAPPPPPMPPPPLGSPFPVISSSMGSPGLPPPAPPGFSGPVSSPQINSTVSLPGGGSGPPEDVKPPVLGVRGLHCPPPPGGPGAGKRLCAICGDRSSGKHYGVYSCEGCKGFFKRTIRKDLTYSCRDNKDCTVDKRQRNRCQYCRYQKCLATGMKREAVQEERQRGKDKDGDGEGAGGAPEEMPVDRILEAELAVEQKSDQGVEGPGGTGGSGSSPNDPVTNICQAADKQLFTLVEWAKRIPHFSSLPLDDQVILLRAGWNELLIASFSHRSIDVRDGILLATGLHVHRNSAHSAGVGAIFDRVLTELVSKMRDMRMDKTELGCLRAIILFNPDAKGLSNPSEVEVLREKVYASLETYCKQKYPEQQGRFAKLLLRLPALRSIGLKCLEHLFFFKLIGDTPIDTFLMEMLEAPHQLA

[6] = target: T4, Retinoic acid receptor beta (Homo sapiens) (UniProt P10826); experiment: Transactivation of Gal4-fused RARbeta (unknown origin) expressed in African green monkey COS1 cells at 100 nM by luciferase reporter gene assay relative to DMSO-treated control; assay type: cell-based; conditions: COS-1
T4 sequence (whole entry): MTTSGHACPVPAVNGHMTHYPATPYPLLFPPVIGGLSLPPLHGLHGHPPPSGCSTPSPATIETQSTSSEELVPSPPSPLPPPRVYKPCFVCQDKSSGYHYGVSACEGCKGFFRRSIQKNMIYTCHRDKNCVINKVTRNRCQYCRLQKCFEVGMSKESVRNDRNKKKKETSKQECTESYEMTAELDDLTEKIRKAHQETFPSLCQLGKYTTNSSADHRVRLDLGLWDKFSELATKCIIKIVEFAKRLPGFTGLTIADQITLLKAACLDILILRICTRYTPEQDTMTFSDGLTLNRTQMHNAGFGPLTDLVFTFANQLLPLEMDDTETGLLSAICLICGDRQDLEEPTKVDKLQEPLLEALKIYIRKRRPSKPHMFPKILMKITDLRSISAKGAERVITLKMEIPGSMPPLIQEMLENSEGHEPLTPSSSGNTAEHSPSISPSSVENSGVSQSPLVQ

| fold change (FC) [2] | Activity [4] | Activity [5] | fold change (FC) [6] | Compound | Activity (HL-60 [1]) [%] | Activity (HL-60 [3]) [%] |
| --- | --- | --- | --- | --- | --- | --- |
| 1 | inactive | inactive | 5 | O=C(O)c1ccc(C(=O)Nc2cc3c4c(c2)CCCC4CCC3)cc1 | 7 | 18 |
| 1 | inactive | inactive | 13 | O=C(O)c1ccc(NC(=O)c2cc3cc(c2)CCCCCCCCCC3)cc1 | 30 | 38 |
| 1 | inactive | inactive |  | O=C(Nc1ccc(C(=O)O)s1)c1cc2c3c(c1)CCCC3CCC2 |  |  |
| 1 | inactive | inactive |  | O=C(Nc1cc2c3c(c1)CCCC3CCC2)c1ccc(C(=O)O)nc1 |  |  |
| 25 | inactive | inactive | 40 | CC12CCCc3cc(C(=O)Nc4ccc(C(=O)O)cn4)cc(c31)CCC2 | 41 | 61 |
| 7 | inactive | inactive | 16 | O=C(O)c1ccc(C(=O)Nc2cc3c4c(c2)CCCC4CCC3)nc1 | 2 | 5 |
| 1 | inactive | inactive | 2 | COc1cc(NC(=O)c2cc3c4c(c2)CCCC4CCC3)ccc1C(=O)O | 7 | 10 |
| 1 | inactive | inactive |  | CC12CCCc3cc(NC(=O)c4ccc(C(=O)O)nc4)cc(c31)CCC2 |  |  |
| 56 | inactive | inactive | 45 | O=C(O)c1ccc(NC(=O)c2cc3c4c(c2)CCCCC4CCCC3)nc1 |  |  |
| 2 | inactive | inactive | 17 | O=C(O)c1ccc(C(=O)Nc2cc3c4c(c2)CCCCC4CCCC3)nc1 |  |  |
| 2 | inactive | inactive | 13 | CC12CCCc3cc(C(=O)Nc4ccc(C(=O)O)c(F)c4)cc(c31)CCC2 | 18 | 29 |
| 2 | inactive | inactive | 7 | O=C(Nc1ccc(C(=O)O)c(F)c1)c1cc2c3c(c1)CCCC3CCC2 | 49 | 60 |
| 1 | inactive | inactive |  | CC12CCCc3cc(C(=O)Nc4ccc(C(=O)O)nc4)cc(c31)CCC2 |  |  |
| 1 | inactive | inactive |  | O=C(Nc1ccc(C(=O)O)nc1)c1cc2c3c(c1)CCCC3CCC2 |  |  |
| 10 | inactive | inactive | 27 | O=C(O)c1ccc(NC(=O)c2cc3c4c(c2)CCCCC4CCCC3)cc1 | 34 | 40 |
| 1 | inactive | inactive |  | CC12CCCc3cc(NC(=O)c4ccc(C(=O)O)s4)cc(c31)CCC2 |  |  |
| 2 | inactive | inactive | 11 | O=C(Nc1ccc(C(=O)O)c(O)c1)c1cc2c3c(c1)CCCCC3CCCC2 | 29 | 41 |
| 1 | inactive | inactive | 8 | CC12CCCc3cc(C(=O)Nc4ccc(C(=O)O)c(Cl)c4)cc(c31)CCC2 | 19 | 21 |
| 2 | inactive | inactive | 13 | O=C(Nc1ccc(C(=O)O)c(Cl)c1)c1cc2c3c(c1)CCCCC3CCCC2 | 18 | 35 |
| 2 | inactive | inactive | 26 | CC12CCCc3cc(NC(=O)c4ccc(C(=O)O)cn4)cc(c31)CCC2 | 5 | 16 |
| 2 | inactive | inactive | 1 | COc1cc(NC(=O)c2cc3c4c(c2)CCCCC4CCCC3)ccc1C(=O)O |  |  |
| 20 | inactive | inactive | 40 | O=C(O)c1ccc(NC(=O)c2cc3c4c(c2)CCCC4CCC3)nc1 | 54 | 59 |
| 1 | inactive | inactive | 8 | O=C(O)c1ccc(C(=O)Nc2cc3cc(c2)CCCCCCCCCC3)cc1 | 16 | 37 |
| 1 | inactive | inactive | 3 | COc1cc(NC(=O)c2cc3c4c(c2)CCCC4(C)CCC3)ccc1C(=O)O | 5 | 17 |
| 1 | inactive | inactive | 1 | CC12CCCc3cc(C(=O)Nc4ccc(C(=O)O)s4)cc(c31)CCC2 |  |  |
| 1 | inactive | inactive | 12 | CC12CCCc3cc(NC(=O)c4ccc(C(=O)O)cc4)cc(c31)CCC2 | 12 |  |
|  | inactive | inactive |  | CC1(C)CCC(C)(C)c2cc(NC(=O)c3ccc(C(=O)O)cc3)ccc21 [TAMIBAROTENE] | 60 | 68 |
| 4 | inactive | inactive | 20 | CC12CCCc3cc(C(=O)Nc4ccc(C(=O)O)cc4)cc(c31)CCC2 | 36 |  |
| 1 | inactive | inactive |  | O=C(O)c1ccc(C(=O)Nc2cc3c4c(c2)CCCC4CCC3)s1 |  |  |
|  | inactive | inactive |  | CC1=C(/C=C/C(C)=C/C=C/C(C)=C/C(=O)O)C(C)(C)CCC1 [TRETINOIN] | 46 | 71 |

Reference: ChEMBL document CHEMBL2396574, “Design, synthesis and evaluation of retinoids with novel bulky hydrophobic partial structures” (Bioorg Med Chem, 2013)
